Data: patent US20230414637A1 (priority 2020, published 2023)
In brackets after ≈: the same amount, converted by molar mass. Like-named read-outs stand apart in the source and are kept apart here.

Key:
[1] = format: physicochemical
Description: pH=pKa+Log10[Nic−ve]/[NicOH] Eqn 1
pHp=pKa+log(S−So)/So Eqn 4
So=the molar intrinsic solubility of the undissociated acid (NicOH), and S=the molar concentration of the salt form initially added.

[2] = Equilibrium dissolution of AK Sci niclosamide versus pH (supernatant concentration by UV/Vis at 333 nm); conditions: for Average [Nic] (uM) UV/Vis, 333 nm), supernatant concentration: 20° C.
[3] = for supernatant concentration reached at 3 hrs: more efficient stirring, pH 9.5, nominal 1 mM
[4] = Dissolution of niclosamide solvates (water precipitate, acetone and ethanol recrystallized) at pH 9.3; conditions: for solubility (equilibrium supernatant concentration several days after dissolution): pH 9.3; for initial dissolution rate, intrinsic parameter: pH 9.3 buffer, 3.5 mgs in 10 mls
Description: To start to evaluate the various expected polymorphs and to try and obtain a morphology that was perhaps like the purchased materials (of unknown processing), three samples were made i.e., the “water-hydrate” precipitated from ethanol into excess water and two that were recrystallized from acetone and from ethanol.
It was filtered on a sintered glass filter, washed three times with deionized water, and dried. The material was ground by mortar and pestle ready for the dissolution test and viewed microscopically to evaluate its crystal morphology.
Each material was also viewed microscopically to evaluate their crystal morphologies.
Dissolution of the solvates. […] 2 uL aliquots were taken directly from the stirred solution in the 20 mL scintillation vial at appropriate time intervals and absorbance at 333 nm was measured by nanodrop spectrophotometer.

[5] = same pH as Yomesan extraction (pH 9.3)
[6] = Literature aqueous solubility of niclosamide; conditions: van Tonder et al [17], converted
[7] = test system: oxidative phosphorylation; conditions: cited from earlier work
[8] = test system: SARS-CoV-2 in Calu-3 cells; conditions: Ko et al [34]; cited from earlier work
[9] = cited from earlier work
[10] = Dissolution and conversion of Sigma niclosamide (3 hrs and overnight stirring)
[11] = test system: SARS-CoV-2 in Vero 6 cells; conditions: Vero 6 cells, Jeon et al [14]; read-out: IC50 for viral replication; cited from earlier work
[12] = test system: GR; conditions: read-out: relative trans-activation potency (EC50); cited from earlier work
[13] = Supersaturated solution precipitation of niclosamide: amount in solution; conditions: pH 9.3, equilibrated
[14] = pH 7.09

O=C(Nc1ccc([N+](=O)[O-])cc1Cl)c1cc(Cl)ccc1O [AK Sci Niclosamide]
pKa fitted from pHp curve to supernatant concentration data ([1]; So 2.53 uM): 7.12
Average [Nic] (uM) UV/Vis, 333 nm), supernatant concentration ([2]; measured pH 3.64, stirred to equilibrium (48 hrs)): 2.53 µM
Average [Nic] (uM) UV/Vis, 333 nm), supernatant concentration ([2]; measured pH 7.05, 48 hrs): 8.68 µM
Average [Nic] (uM) UV/Vis, 333 nm), supernatant concentration ([2]; measured pH 7.64, 48 hrs): 16.75 µM
Average [Nic] (uM) UV/Vis, 333 nm), supernatant concentration ([2]; measured pH 8.06, 48 hrs): 25.83 µM
Average [Nic] (uM) UV/Vis, 333 nm), supernatant concentration ([2]; measured pH 8.26, 48 hrs): 47.26 µM
Average [Nic] (uM) UV/Vis, 333 nm), supernatant concentration ([2]; measured pH 8.53, 48 hrs): 83.31 µM
Average [Nic] (uM) UV/Vis, 333 nm), supernatant concentration ([2]; measured pH 8.75, 48 hrs): 137.29 µM
Average [Nic] (uM) UV/Vis, 333 nm), supernatant concentration ([2]; measured pH 9.04, 48 hrs): 215.66 µM
Average [Nic] (uM) UV/Vis, 333 nm), supernatant concentration ([2]; measured pH 9.22, 48 hrs): 344.32 µM
Average [Nic] (uM) UV/Vis, 333 nm), supernatant concentration ([2]; measured pH 9.32, 48 hrs): 382.68 µM
Average [Nic] (uM) UV/Vis, 333 nm), supernatant concentration ([2]; measured pH 9.4, 48 hrs): 466.14 µM
Average [Nic] (uM) UV/Vis, 333 nm), supernatant concentration ([2]; measured pH 9.63, 48 hrs): 703.26 µM
limiting (intrinsic) solubility So of the protonated acid ([2]; pH 3.66): 2.53 µM
polymorph stability of excess powder in stirred buffer ([2]; stirred 24 hrs and longer, days, in presence of original powder): did not readily convert to the less soluble hydrates
supernatant concentration reached at 3 hrs ([3]; listed as AK Sci niclosamide): 564 µM
fitted logarithmic dissolution rate, pre-ln factor ([3]; pH 8.62, nominal 1 mM, first hour): 22
fitted logarithmic dissolution rate, pre-ln factor ([3]; pH 8.72, nominal 1 mM): 24
fitted logarithmic dissolution rate, pre-ln factor ([3]; pH 9.06, nominal 1 mM): 38
initial rate of dissolution / extraction over first three minutes ([3]; pH 9.3 buffer): 51.7 µM/min
intrinsic dissolution rate ([3]; pH 9.3 buffer, converted from uM/min): 0.28 µg/s
fitted logarithmic dissolution rate, pre-ln factor ([3]; pH 9.36, nominal 1 mM): 71
solubility (equilibrium supernatant concentration several days after dissolution) [4]: ~383 µM (≈ 125 µg/mL)
clear supernatant solution concentration [5]: 520 µM

O=C(Nc1ccc([N+](=O)[O-])cc1Cl)c1cc(Cl)ccc1O [Anhydrate]
solubility of crystal forms in distilled water [6]: 40.4 µM

N#CC(C#N)=NNc1ccc(OC(F)(F)F)cc1 [FCCP]
concentration of uncoupling activity [7]: 100 nM

O.O=C(Nc1ccc([N+](=O)[O-])cc1Cl)c1cc(Cl)ccc1O [Monohydrates HA]
solubility of crystal forms in distilled water [6]: 2.9 µM

O.O=C(Nc1ccc([N+](=O)[O-])cc1Cl)c1cc(Cl)ccc1O [Monohydrates HB]
solubility of crystal forms in distilled water [6]: 1.87 µM

N=C(N)c1ccc2cc(OC(=O)c3ccc(N=C(N)N)cc3)ccc2c1 [Nafamostat]
antiviral activity [8]: few nanomolar

O=C(Nc1ccc([N+](=O)[O-])cc1Cl)c1cc(Cl)ccc1O [NicAcetone-recrys]
solubility (equilibrium supernatant concentration several days after dissolution) ([4]; listed as acetone recrystallized material): 79.4 µM (≈ 26 µg/mL)
initial dissolution rate, intrinsic parameter [4]: 0.0369 µM/mg

O=C(Nc1ccc([N+](=O)[O-])cc1Cl)c1cc(Cl)ccc1O [NicEtOH-recrys]
initial dissolution rate, intrinsic parameter [4]: 0.0439 µM/mg

O=C(Nc1ccc([N+](=O)[O-])cc1Cl)c1cc(Cl)ccc1O [NicH20ppt]
solubility (equilibrium supernatant concentration several days after dissolution) ([4]; listed as water solvate): 132.6 µM (≈ 43.4 µg/mL)
initial dissolution rate, intrinsic parameter [4]: 0.104 µM/mg

O=C(Nc1ccc([N+](=O)[O-])cc1Cl)c1cc(Cl)ccc1O [Nic−ve]
solubility limit of the negatively charged salt ([2]; pH 9.5): ~640 µM
solubility limit of the deprotonated salt ([2]; pH 9.63): at least 703.6 uM
solubility limit of the negatively charged salt ([2]; pH not stated at the place): ≥ 670 µM

Oc1c(Cl)c(Cl)c(Cl)c(Cl)c1Cl [PCP]
pKa ([9]; Terada [39]): 4.80
concentration of uncoupling activity ([7]; Terada [39]): 1000 nM

CC(C)(C)c1cc(Cl)cc(C(=O)Nc2ccc([N+](=O)[O-])cc2Cl)c1O [S-13]
pKa ([9]; Terada [39]): 6.57
concentration of uncoupling activity ([7]; Terada [39]): 30 nM

CC(C)(C)c1cc(C=C(C#N)C#N)cc(C(C)(C)C)c1O [SF 6847, 3,5-Di-tert-butyl-4-hydroxy-benzylidene-Malononitrile]
pKa ([9]; Terada [39]): 6.83
concentration of uncoupling activity ([7]; Terada [39]): 10 nM

O=C(Nc1ccc([N+](=O)[O-])cc1Cl)c1cc(Cl)ccc1O [Sigma niclosamide]
reduction of amount of niclosamide in supernatant solution after overnight equilibration ([10]; over the whole pH range): ~3.5 ×
solubility after overnight equilibration ([10]; pH 9.3): 103 µM (≈ 33.7 µg/mL)
polymorph stability of excess powder in stirred buffer ([10]; several hours after the first 3 hrs): converted to a much lower solubility polymorph
loss of material concentration from 3 hrs to 24 hrs ([10]; ~pH 9.5): 434 µM
supernatant niclosamide concentration at 3 hrs ([10]; ~pH 9.5): 681 µM
supernatant niclosamide concentration after 24 hrs (overnight stirring) ([10]; ~pH 9.5, filtered 0.22 um): 247 µM
supernatant concentration reached at 3 hrs [3]: 680 µM
fitted logarithmic dissolution rate, factor of ln(x) ([3]; pH 9.44 buffer, more optimized (standardized) stirring): 116

FC(F)(F)c1nc2c(Cl)c(Cl)c(Cl)c(Cl)c2[nH]1 [TTFB]
pKa ([9]; in 50% ethanol): 5.5
concentration of uncoupling activity ([7]; Terada [39]): 100 nM

CCN(CC)CCCC(C)Nc1ccnc2cc(Cl)ccc12 (centres unmarked) [chloroquine]
IC50 [11]: 9.12 µM

O=C(O)c1ccccc1Nc1cccc(C(F)(F)F)c1 [flufenamic acid]
pKa ([9]; Terada [39]): 3.85
concentration of uncoupling activity ([7]; Terada [39]): 50000 nM

CCC(=O)O[C@]1(C(=O)SCF)[C@H](C)C[C@H]2[C@@H]3C[C@H](F)C4=CC(=O)C=C[C@]4(C)[C@@]3(F)[C@@H](O)C[C@@]21C [fluticasone propionate]
EC50 [12]: 0.32 ± 0.04 nM

Cc1cccc(C)c1OCC(=O)N[C@@H](Cc1ccccc1)[C@@H](O)C[C@H](Cc1ccccc1)NC(=O)[C@H](C(C)C)N1CCCNC1=O [lopinavir]
IC50 [11]: 7.28 µM

O=C(Nc1ccc([N+](=O)[O-])cc1Cl)c1cc(Cl)ccc1O [precipitated material]
solubility of material precipitated in situ from supersaturated solution [13]: 180.9 µM

O.O=C(Nc1ccc([N+](=O)[O-])cc1Cl)c1cc(Cl)ccc1O [presumed monohydrate]
expected concentration in solution from pHp model ([1]; pH 6): 1 uM
solubility [14]: 1.24 µM
